System: Normal human fibroblasts (NHF)
Assay: Fibroblast proliferation by BrdU incorporation
Assay type: cell-based
Conditions: single agent; Ascophyscient 10 and 100 μg/ml, sodium hyaluronate 100 and 1000 μg/ml; 44 hours, DMEM with 3% FCS; FIG. 2
Protocol: The technique used is that of incorporation of a nucleotide, 5-bromo-2′-deoxyuridine (BrdU), a thymidine analog, in the DNA of S-phase cells, at 37° C. This technique makes it possible to quantify cells of which the advance in the cell cycle is characteristic of a proliferating cell (S-phase or DNA synthesis phase). Normal human fibroblasts (NHF), isolated from surgical waste skin, are usually cultivated in Dulbecco's modified Eagle's medium (DMEM) with 10% fetal calf serum (FCS). In our experimental conditions, dilutions of the products to be tested are prepared in DMEM with 3% FCS. The cells are first deprived of FCS for 24 hours to stop cell multiplication before incubating them in the presence of the molecules to be evaluated for 44 hours at 37° C., in a 5% CO2 atmosphere. BrdU incorporation, proportional to cell proliferation rate, is evaluated by an anti-BrdU antibody system (Roche Applied Science). The corresponding absorbance (OD) is measured at 450 nm. This datum is thus proportional to cell proliferation rate. […] Analysis of the Results: • expressed as OD (proportional to BrdU incorporation and thus to cell proliferation rate) • expressed as percent stimulation: [formula] • expressed as standard error of the mean: SEM=standard deviation (SD)/√n Statistical analyses using unpaired bilateral Student's t-test were carried out on the raw OD values. […]

Q: Which “fibroblast proliferation (BrdU incorporation, OD 450 nm)” value does the source give for sodium hyaluronate here?
A: The value was “moderate effect on fibroblast proliferation”.

Source: US20170049678A1, “COMBINATION OF A HYALURONIC ACID AND OF A SULPHATED POLYSACCHARIDE” (PIERRE FABRE DERMO-COSMETIQUE, priority 2014, published 2017)
